Test systems include A498 renal; BT-549 breast; HCC-2998 colon; HL-60(TB) leukemia; HOP-92 NSCLC; NCI-H23 lung; OVCAR-4 ovarian; SK-MEL-2 melanoma; SK-OV-3 ovarian; UACC-62 melanoma.
Common to all, as to test: inhibition of tumour cell growth, NCI panel, 48 h

Each structure is given as a SMILES string.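 Tested at 5 concentrations; 48 h exposure; 96-well plates; endpoints linearly interpolated, else capped at highest concentration. GI50: concentration for 50% inhibition of growth. Definition used: TGI = concentration required for complete inhibition of growth.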

Regarding `CNC(=O)OC1/C(C)=C\C(C)C(O)C(OC)CC(C)CC2=C(OC)C(=O)C=C(C2=O)N(C)C(=O)/C(C)=C/C=C\C1OC` (stereo not given), the TGI turned out to be 42.8 µM in the test on A498 renal; 18.5 µM with BT-549 breast; 21.4 µM in the test with HCC-2998 colon; 14.1 µM with HL-60(TB) leukemia; 16 µM in the test with HOP-92 NSCLC; 15 µM in the test with NCI-H23 lung. In addition, the TGI with OVCAR-4 ovarian was determined as 22 µM; with SK-MEL-2 melanoma, 21.9 µM; in the test with SK-OV-3 ovarian it was 30 µM; in the test on UACC-62 melanoma, 17.6 µM. In addition, the GI50 in the test on HL-60(TB) leukemia is 0.918 µM.
Regarding `COc1ccc2cc(CNCCCCCCNC(=O)Nc3cccc4ccccc34)ccc2c1`, the TGI in the test on A498 renal, in the test with BT-549 breast, in the test with HCC-2998 colon, with HL-60(TB) leukemia, in the test with HOP-92 NSCLC and in the test with NCI-H23 lung was more than 100 µM throughout. Besides, the TGI in the test with OVCAR-4 ovarian, in the test with SK-MEL-2 melanoma, with SK-OV-3 ovarian and with UACC-62 melanoma was more than 100 µM each time.
Take `C#C[C@]1(O)CC[C@H]2[C@@H]3CCC4=C/C(=N/OC(=O)c5cccc6cc7ccccc7nc56)CC[C@@H]4[C@H]3CC[C@@]21CC`: the TGI in the test with A498 renal, in the test on BT-549 breast, in the test on HCC-2998 colon, in the test with HL-60(TB) leukemia, in the test on HOP-92 NSCLC and in the test on NCI-H23 lung was more than 100 µM in each case. The TGI in the test with OVCAR-4 ovarian, with SK-MEL-2 melanoma, in the test with SK-OV-3 ovarian and with UACC-62 melanoma was more than 100 µM each time.
Take `N#CC1=C(N)OC2=C(CCCc3ccc([N+](=O)[O-])cc32)C1c1ccc(Cl)cc1` (stereo not given): the TGI is 35.5 µM in the test on A498 renal; 75.3 µM with BT-549 breast; 52.3 µM in the test with HCC-2998 colon; 7.26 µM in the test on HL-60(TB) leukemia; more than 100 µM in the test with HOP-92 NSCLC; 47.7 µM in the test on NCI-H23 lung. For the same molecule, the TGI was 28.3 µM in the test on OVCAR-4 ovarian, 54.7 µM in the test with SK-MEL-2 melanoma, more than 100 µM in the test with SK-OV-3 ovarian and 20.2 µM in the test with UACC-62 melanoma.
Consider `CC(C)C1OC(=O)C(Cc2ccccc2)N(C)C(=O)C(C(C)C)OC(=O)C(Cc2ccccc2)N(C)C(=O)C(C(C)C)OC(=O)C(Cc2ccccc2)N(C)C1=O` (stereo not given), for which the TGI with A498 renal was determined as 6.53 µM; in the test with BT-549 breast, 3.01 µM; in the test with HCC-2998 colon, 1.99 µM; with HL-60(TB) leukemia, 1.21 µM; in the test on HOP-92 NSCLC it was 1.3 µM; in the test on NCI-H23 lung it was 2.62 µM. Besides, the TGI came out at 1.18 µM in the test with OVCAR-4 ovarian, 1.36 µM with SK-MEL-2 melanoma, 2.16 µM in the test with SK-OV-3 ovarian and 1.98 µM with UACC-62 melanoma.
As to `CC[C@@]1(O)C(=O)OCc2c1cc1n(c2=O)Cc2c-1nc1ccc(N)cc1c2CC[Si](C)(C)C`, the TGI with A498 renal is 0.0189 µM; with BT-549 breast it was 13.1 µM; in the test with HCC-2998 colon, 0.103 µM; in the test on HL-60(TB) leukemia it was less than 0.01 µM; with HOP-92 NSCLC it was 1.07 µM; in the test with NCI-H23 lung, less than 0.01 µM. Moreover, the TGI in the test with OVCAR-4 ovarian is 5.94 µM; with SK-MEL-2 melanoma, 0.427 µM; in the test with SK-OV-3 ovarian, 1.63 µM; in the test on UACC-62 melanoma, less than 0.0104 µM.
Turning to `CCOC(=O)c1cccc(N=NNc2cccc(C(=O)OCC)c2)c1`, the TGI in the test with A498 renal is 86.1 µM; in the test with BT-549 breast, more than 100 µM; in the test with HCC-2998 colon, more than 100 µM; with HL-60(TB) leukemia it was more than 100 µM; with HOP-92 NSCLC, 46.8 µM; with NCI-H23 lung it was more than 100 µM. Also, the TGI in the test on OVCAR-4 ovarian is 63 µM; in the test with SK-MEL-2 melanoma, more than 100 µM; in the test with SK-OV-3 ovarian it was 93.4 µM; with UACC-62 melanoma, more than 100 µM.
In the case of `C=CCSC1=N/C(=C\c2ccc(C)cc2)C(=O)N1CC=C`, the TGI with A498 renal was 51.8 µM; in the test on BT-549 breast it was 81.6 µM; with HCC-2998 colon, 74.3 µM; in the test with HL-60(TB) leukemia, 28.1 µM; in the test on HOP-92 NSCLC it was 57.5 µM; with NCI-H23 lung it was more than 100 µM. In addition, the TGI is more than 100 µM with OVCAR-4 ovarian, 61 µM in the test with SK-MEL-2 melanoma, more than 100 µM with SK-OV-3 ovarian and more than 100 µM with UACC-62 melanoma.
`CC(C)=CC(=O)c1[nH]c2ccccc2c1CC(=O)NCCc1cnc[nH]1`: the TGI in the test with A498 renal, in the test on BT-549 breast, in the test on HCC-2998 colon, with HL-60(TB) leukemia, in the test on HOP-92 NSCLC and with NCI-H23 lung was more than 100 µM in each case. Further, the TGI in the test on OVCAR-4 ovarian, with SK-MEL-2 melanoma, with SK-OV-3 ovarian and with UACC-62 melanoma was more than 100 µM throughout.
`O=C(c1ccccc1)c1nn(-c2cccc(Cl)c2)c2nc3nc(-c4ccccc4)cc(=O)n3nc12`: the GI50 in the test with A498 renal was more than 25 µM; in the test on BT-549 breast, more than 25 µM; with HCC-2998 colon, 22.6 µM; in the test on HL-60(TB) leukemia, 5.1 µM; with HOP-92 NSCLC, more than 25 µM; in the test with NCI-H23 lung it was more than 25 µM. Besides, the GI50 in the test on OVCAR-4 ovarian, with SK-MEL-2 melanoma, in the test on SK-OV-3 ovarian and in the test with UACC-62 melanoma was more than 25 µM each time. Besides, the TGI was more than 25 µM in the test on A498 renal; more than 25 µM in the test on BT-549 breast; more than 25 µM in the test with HCC-2998 colon; 16.7 µM in the test on HL-60(TB) leukemia; more than 25 µM with HOP-92 NSCLC; more than 25 µM with NCI-H23 lung. Also, the TGI in the test on OVCAR-4 ovarian, in the test with SK-MEL-2 melanoma, with SK-OV-3 ovarian and in the test on UACC-62 melanoma was more than 25 µM in each case.
`NS(=O)(=O)c1ccc(Nc2c3ccccc3nc3c(C(=O)NC(CO)(CO)CO)cccc23)cc1`: the TGI with A498 renal is 0.466 µM; in the test on BT-549 breast, 0.322 µM; in the test on HCC-2998 colon, 0.39 µM; in the test with HL-60(TB) leukemia, 0.642 µM; in the test on HOP-92 NSCLC it was 0.389 µM; in the test with NCI-H23 lung it was 0.318 µM. The TGI with OVCAR-4 ovarian came to 0.193 µM; with SK-MEL-2 melanoma, 0.396 µM; in the test on SK-OV-3 ovarian, 0.468 µM; in the test on UACC-62 melanoma, 0.318 µM.
As to `CCC(CCCC[C@H]1CC[C@@H]2CC(=O)C[C@H]12)OC` (stereo not given in full), the TGI in the test on A498 renal, with BT-549 breast, with HCC-2998 colon, with HL-60(TB) leukemia, in the test with HOP-92 NSCLC and with NCI-H23 lung was more than 100 µM throughout. The TGI in the test with OVCAR-4 ovarian, in the test on SK-MEL-2 melanoma, in the test on SK-OV-3 ovarian and in the test on UACC-62 melanoma was more than 100 µM throughout.
Turning to `Cc1ccc(NC(c2ccccc2)P(=O)(c2ccccc2)c2ccccc2)cc1` (stereo not given), the TGI was more than 100 µM in the test on A498 renal; more than 100 µM in the test with BT-549 breast; more than 100 µM in the test with HCC-2998 colon; more than 100 µM in the test with HL-60(TB) leukemia; 67.4 µM in the test with HOP-92 NSCLC; more than 100 µM with NCI-H23 lung. For the same molecule, the TGI in the test with OVCAR-4 ovarian, in the test with SK-MEL-2 melanoma, in the test on SK-OV-3 ovarian and with UACC-62 melanoma was more than 100 µM throughout.
For `O=C(O)COc1c(Cl)cc(Cl)c(C(c2c(Cl)cc(Cl)c(OCC(=O)O)c2Cl)C(Cl)(Cl)Cl)c1Cl`, the TGI with A498 renal was more than 100 µM; with BT-549 breast, 51.3 µM; in the test on HCC-2998 colon it was 28.6 µM; in the test with HL-60(TB) leukemia, 59.9 µM; in the test with HOP-92 NSCLC, 62.4 µM; in the test on NCI-H23 lung it was 62.3 µM. The TGI with OVCAR-4 ovarian is more than 100 µM; in the test on SK-MEL-2 melanoma it was 42.2 µM; with SK-OV-3 ovarian, 47.2 µM; in the test on UACC-62 melanoma, 37.9 µM.
With `CCc1nnc2sc(-c3ccc(-c4ccccc4[N+](=O)[O-])o3)nn12`, the TGI in the test on A498 renal is more than 100 µM; in the test on BT-549 breast it was more than 100 µM; in the test on HCC-2998 colon, more than 100 µM; with HL-60(TB) leukemia, 99.2 µM; in the test with HOP-92 NSCLC, more than 100 µM; in the test with NCI-H23 lung, more than 100 µM. Also, the TGI with OVCAR-4 ovarian was more than 100 µM; with SK-MEL-2 melanoma, 95.7 µM; in the test with SK-OV-3 ovarian, more than 100 µM; in the test on UACC-62 melanoma, more than 100 µM.
Consider `Cc1[nH]c2c(C)c3c([nH]c4ccc(Cl)cc43)c(C)c2c(=O)c1C`, for which the TGI was 51.9 µM in the test on A498 renal; more than 100 µM in the test on BT-549 breast; 16.5 µM in the test on HCC-2998 colon; 9.64 µM with HL-60(TB) leukemia; more than 100 µM with HOP-92 NSCLC; 18.9 µM in the test with NCI-H23 lung. The TGI with OVCAR-4 ovarian was more than 64.1 µM; in the test on SK-MEL-2 melanoma it was more than 100 µM; in the test on SK-OV-3 ovarian it was more than 73.8 µM; in the test with UACC-62 melanoma, more than 88.3 µM.
Regarding `COc1ccc(Cl)cc1NC(=O)O/N=C(\Cl)C(C)C`, the TGI is 46.8 µM in the test with A498 renal; 6.9 µM in the test with BT-549 breast; 35.7 µM with HCC-2998 colon; more than 24.5 µM with HL-60(TB) leukemia; 3.9 µM with HOP-92 NSCLC; 47.7 µM in the test with NCI-H23 lung. For the same molecule, the TGI in the test on OVCAR-4 ovarian was found to be 34.1 µM; in the test on SK-MEL-2 melanoma it was 33.9 µM; in the test with SK-OV-3 ovarian it was 34.7 µM; with UACC-62 melanoma it was 32.1 µM.
On to `CCOC(=O)c1c(N2CCN(C)CC2)[nH]c(=O)c(C(c2c(Cl)cccc2Cl)c2c(O)c(C(=O)OCC)c(N3CCN(C)CC3)[nH]c2=O)c1O`, for which the TGI in the test with A498 renal was 39.8 µM; in the test on BT-549 breast it was 40.8 µM; in the test with HCC-2998 colon it was 78.1 µM; in the test with HL-60(TB) leukemia it was 58.2 µM; in the test on HOP-92 NSCLC, 37.6 µM; with NCI-H23 lung, more than 100 µM. For the same molecule, the TGI in the test on OVCAR-4 ovarian was 38.4 µM; in the test with SK-MEL-2 melanoma it was 53.2 µM; in the test with UACC-62 melanoma it was 39.5 µM.
On to `C=CCCCCCCCCCOC1C=CC(O)C(CO)O1` (stereo not given), for which the TGI is more than 100 µM with A498 renal; more than 100 µM with BT-549 breast; more than 100 µM in the test with HCC-2998 colon; 65.5 µM in the test with HL-60(TB) leukemia; more than 100 µM in the test with HOP-92 NSCLC; 97.5 µM with NCI-H23 lung. Moreover, the TGI in the test on OVCAR-4 ovarian was more than 100 µM; in the test on SK-MEL-2 melanoma, more than 100 µM; in the test with SK-OV-3 ovarian, more than 100 µM; in the test with UACC-62 melanoma, 97.4 µM.
Take `COc1ccc(/C=N/n2c(-c3ccccc3)n[nH]c2=O)c(OC)c1`: the TGI is more than 73.4 µM in the test with A498 renal; more than 44.6 µM in the test on BT-549 breast; more than 100 µM in the test with HCC-2998 colon; more than 100 µM with HL-60(TB) leukemia; more than 100 µM with HOP-92 NSCLC; more than 100 µM with NCI-H23 lung. In addition, the TGI with OVCAR-4 ovarian was more than 86.6 µM; in the test on SK-MEL-2 melanoma it was more than 100 µM; in the test on SK-OV-3 ovarian it was more than 74.6 µM; in the test with UACC-62 melanoma, more than 100 µM.

(Values after PubChem BioAssay (NCI).)
